Values quoted from earlier work, collected in US7288559B2, “Carboxamide spirohydantoin CGRP receptor antagonists” (Merck + Co, Inc., priority 2003, dated 2007).
No end group written: not given here.

Columns and labels:
[1] = test system: marmoset; conditions: electrical stimulation of the trigeminal ganglion
[2] = test system: rats; conditions: electrical stimulation of the dura mater, prior administration
[3] = test system: rat; conditions: trigeminal ganglion stimulation

Compound	effect on increase in facial blood flow [1]	effect on increase of middle meningeal artery diameter [2]	effect on increased facial blood flow [3]
NCCCC[C@H](NC(=O)[C@@H](Cc1cc(Br)c(O)c(Br)c1)NC(=O)N1CCC(N2Cc3ccccc3NC2=O)CC1)C(=O)N1CCN(c2ccncc2)CC1 [BIBN4096BS]	blocked		
CGRP(8-37): a peptide CGRP antagonist (VTHRLAGLLSRSGGVVKNNFVPTNVGSKAF; ends and bridges not checked; UniProt P06881 90-119, looked up, fragment)		blocked	inhibited
